Measured values: patent publication US8557603B2, “Synthetic peptides, methods and kits for diagnosing autoimmune diseases” (FlySun Development Co. Ltd., priority 2009, dated 2013)

Test system: IgA autoantibodies of patients with acute HSP
Assay: ELISA detection of IgA anti-β2-GPI-derived peptides antibodies
Format: binding, human
Settings: for binding between IgA derived from 7 patients with acute HSP and the synthetic peptide: IgA1-7 at 10 (g/ml), n=7, OD higher than positive control (β2-GPI) regarded as significant, FIG. 8; for plasma level of IgA anti-β2-GPI peptide antibodies in children with acute HSP compared with healthy subjects: plasma 1:50, peptide coated at 10 (g/ml), expressed as OD, p<0.0001
Experimental: Circulating IgA immunoglobulins were isolated from 7 plasma samples positive for both CL and β2GPI by use of a commercial kit, Immobilized Jacalin (PIERCE, USA, USA), which isolates serum-circulating IgA1 by galactose-binding lectin.
Briefly, 96-well high binding plates (Costar, Cambridge, Mass., USA) are coated with human β-2-GPI peptides 1-15 at a concentration of 10 (g/ml in Tris-buffered saline (TBS, 0.05 M Tris-HCl and NaCl, PH 7.5). After incubating overnight at 4° C., plates are blocked with TBS containing 0.3% gelatin. Then, plasma samples (1:50 for IgA), and IgA fraction from patients (indicated concentrations) in TBS/0.1% gelatin were distributed into wells in duplicate and incubated for 1.5 hours at room temperature. A pooled normal human IgA (Jackson ImmunoResearch, West Grove, Pa., USA) will be used as negative controls at the same concentrations. After washing with TBS, bound human […] were detected with HRP-conjugated goat anti-human IgA (BioSource International, Camarillo, Calif., USA), and the peroxidase substrate tetramethylbenzidine (Kirkegaard & Perry Laboratories, Gaithersburg, Md., USA). Results were read at a wavelength of 450 nm against a background of 650 nm with a Thermomax plate reader (Molecular Devices Inc., Sunnyvale, Calif., USA).

| Substance | binding between IgA derived from 7 patients with acute HSP and the synthetic peptide | plasma level of IgA anti-β2-GPI peptide antibodies in children with acute HSP compared with healthy subjects (FIGS. 7, 8 and 9) | binding strength among the synthetic peptides (IgA anti-peptide antibodies, children with acute HSP, FIGS. 7, 8 and 9) |
| --- | --- | --- | --- |
| H2N-FKNGMLHGDKVSFFCKNKEK-COOH (H-FKNGMLHGDKVSFFCKNKEK-OH; listed as Homo sapiens) [P12, synthetic β2-GPI-derived peptide, residues 286-305] | significant binding | significantly higher |  |
| H2N-KATFGCHDGYSLDGPEEIECTKLGNWSAMPSCKASCKVPVKKATVVYQGERVKIQEK-COOH (H-KATFGCHDGYSLDGPEEIECTKLGNWSAMPSCKASCKVPVKKATVVYQGERVKIQEK-OH; cysteine pairing not given here; listed as Homo sapiens) [P11, synthetic β2-GPI-derived peptide, residues 229-285] | significant binding | significantly higher |  |
| H2N-KPGYVSRGGMRKFICPLTGLWPINTLK-COOH (H-KPGYVSRGGMRKFICPLTGLWPINTLK-OH; listed as Homo sapiens) [P3, synthetic β2-GPI-derived peptide, residues 52-78] | significant binding | significantly higher | most significant |
| H2N-KWSPELPVCAPIICPPPSIPTFATLRVYK-COOH (H-KWSPELPVCAPIICPPPSIPTFATLRVYK-OH; cysteine pairing not given here; listed as Homo sapiens) [P7, synthetic β2-GPI-derived peptide, residues 129-157] | significant binding | significantly higher |  |
| H2N-RYTTFEYPNTISFSCNTGFYLNGADSAK-COOH (H-RYTTFEYPNTISFSCNTGFYLNGADSAK-OH; listed as Homo sapiens) [P5, synthetic β2-GPI-derived peptide, residues 96-123] | significant binding | significantly higher |  |
